From PubChem BioAssay (NCI)
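48-hour exposure; five concentrations; linearly interpolated endpoints. GI50 marks 50% less growth. TGI is the concentration that stops growth completely.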

Experiments:
Test in all cases: inhibition of tumour cell growth, NCI panel, 48 h
[1] = test system: BT-549 breast
[2] = test system: MCF7 breast
[3] = test system: MDA-MB-231 breast
[4] = test system: MDA-MB-435
[5] = test system: MDA-N

| SMILES | TGI [1] [µM] | TGI [2] [µM] | TGI [3] [µM] | TGI [4] [µM] | TGI [5] [µM] | GI50 [1] [µM] | GI50 [2] [nM] | GI50 [3] [µM] | GI50 [4] [µM] |
| --- | --- | --- | --- | --- | --- | --- | --- | --- | --- |
| COc1cc(C2c3cc4c(cc3OC(N3CCCC3)C2C)OCO4)cc(OC)c1OC (centres undefined) | 11.5 | 4.06 | 9.32 | 1.84 | 0.418 | – | – | – | – |
| COc1c(CCC[P+](c2ccccc2)(c2ccccc2)c2ccccc2)cc2c(c1OC)OCO2 | 15 | 10.7 | 10.9 | 5.03 | – | 1.24 | 1120 | 2.14 | 0.462 |
| C1CCSCCCCSCCCCSCCCCSC1 | > 100 | > 100 | > 100 | > 100 | > 100 | – | – | – | – |
| O=CNc1c(Cl)cc2c(c1Cl)Cc1cc([N+](=O)[O-])ccc1-2 | > 86.9 | > 100 | 47.7 | 3.63 | – | 16.3 | 340 | 8.16 | 1.46 |
| Cc1ccc2c(ccc3c[n+]4c5ccccc5ccc4n32)c1 | 2.41 | 8.49 | 11.6 | 2.55 | – | 0.434 | 2070 | 2.7 | 1.13 |
| CCCCCn1c(=N)n(CC(O)COc2cccc(C)c2)c2ccccc21 (centres undefined) | 23.3 | 11.6 | 18.8 | 11.2 | – | 9.22 | 2850 | 5.39 | 3 |
| O=C(Cn1ccc(=O)[nH]c1=O)Nc1ccc(C(=O)O)c(O)c1 | > 100 | > 100 | > 100 | > 100 | > 100 | – | – | – | – |
| COc1ccc(-c2ccc(/C=N/n3c(COc4ccc(Cl)cc4Cl)n[nH]c3=S)o2)c([N+](=O)[O-])c1 | 50.2 | 41.7 | – | 38 | – | 21.9 | 15900 | – | 18.1 |
| COC1(C(=O)N[C@@H](C)c2ccc(-n3cc(F)cn3)nc2)CCC(c2nc(C)cc(Nc3cc(C)[nH]n3)n2)CC1 (some centres undefined) | 6.01 | 14.6 | 4.69 | 21.1 | – | 0.627 | 1530 | 1.14 | 8.27 |
| COC(=O)/C=C/C=C(c1ccccc1)c1ccccc1 | 19.6 | > 100 | 36 | 4.37 | – | 3.4 | 4080 | 11.1 | 1.63 |
| CNC(=O)n1ccc2cc(Oc3ccnc(NC(=O)c4ccc(C5CCN(CCO)CC5)cc4)c3)c(OCCOC)cc21 | 14.2 | 19.5 | 6.11 | 11.8 | – | 2.35 | 4330 | 2.46 | 3.2 |
| COc1ccc(C(=O)/C=C/c2ccc(/C=C/c3cc(OC)c(OC)c(OC)c3)cc2)cc1 | 16.8 | 36.6 | > 100 | 47.7 | – | 3.36 | 2180 | 10.2 | 4.28 |
| Nc1c(C(=O)Nc2cccc([N+](=O)[O-])c2)sc2nc3c(cc12)C(O)CCC3 (centres undefined) | 57.3 | > 100 | > 100 | 2.78 | – | 7.76 | 3140 | 21.3 | 0.403 |
| Nc1ccn(Cc2ccc(C34CC5CC(CC(C5)C3)C4)c(O)c2)c(=O)n1 | > 100 | > 100 | > 100 | > 100 | – | > 100 | 91500 | > 100 | > 100 |
| O=C1OC(=O)C(c2c[nH]c3ccccc23)=C1c1c[nH]c2ccccc12 | > 25 | > 25 | > 25 | > 25 | – | > 25 | > 25000 | 14.5 | > 25 |
| CC1SC(c2c(Cl)cccc2Cl)N(NC(=O)c2[nH]c3ccc(F)cc3c2-c2ccccc2)C1=O (centres undefined) | 28.5 | 11.5 | 4.28 | > 100 | – | 5.04 | 3180 | 2.13 | 5.01 |
| COc1cc(Cl)cc(-c2nn(C(=O)NCCN3CCOCC3)cc2-c2ccncc2)c1 | 35.2 | > 100 | > 100 | 3.61 | – | 3.87 | 3540 | 13 | 0.604 |
| Cc1sc(C(=O)Nc2cc(C(=O)NCCCN(C)C)n(C)c2)cc1NC(=O)CCCN1C(=O)c2cccc3cccc(c23)C1=O | – | > 100 | > 100 | > 100 | – | – | > 100000 | > 100 | > 100 |

| SMILES | TGI [1] [µM] | TGI [2] [µM] | TGI [3] [µM] | TGI [4] [µM] | TGI [5] [µM] | GI50 [1] [µM] | GI50 [2] [nM] | GI50 [3] [µM] | GI50 [4] [µM] |
| --- | --- | --- | --- | --- | --- | --- | --- | --- | --- |
| CC(C)(C)C#CC1=C(Br)C(=O)OC1 | 19.7 | 25.9 | 11 | 24.1 | – | 4.89 | 3990 | 2.48 | 7.44 |
| CC(C)(C)C[C@H]1NC(C(=O)NCC[C@H](O)CO)[C@H](c2cccc(Cl)c2)[C@@]12C(=O)Nc1cc(Cl)c(F)cc12 (some centres undefined) | 34.2 | 11.7 | 32.4 | 29.6 | – | 16.3 | 1610 | 14.9 | 14.1 |
| CCN(Cc1ccc(F)c(F)c1)c1ccc(CO)c(Cl)c1 | 25 | 12.3 | 26.6 | 37.6 | – | 11.3 | 195 | 12.8 | 17.9 |
| C[C@H](Nc1ncnc2nc[nH]c12)c1cc2cccc(Cl)c2c(=O)n1-c1ccccc1 | > 83.1 | > 100 | > 100 | > 100 | – | 1.57 | 3160 | 46.4 | 19.4 |
| C=CCc1c2c(c(OC)c3ccoc13)C(=O)/C(=C/c1ccccc1OC)O2 | > 100 | > 100 | > 100 | > 100 | – | 4.44 | 2920 | 4.59 | 3.12 |
| CN(CCCN)CCCNc1nc2ccccc2c2[nH]c3ccccc3c12 | 2.15 | 1.03 | 0.774 | 0.816 | – | 0.924 | 245 | 0.231 | 0.281 |
| CCN1C(=O)N(CC)C2C1NN=c1s/c(=C\c3cccnc3)c(=O)n12 (centres undefined) | 19.9 | > 100 | > 95.3 | 0.527 | – | 1.04 | 333 | 3.57 | 0.154 |
| N#Cc1cnc2cc(OC[C@H](O)CO)c(NC(=O)CC3CSSC3)cc2c1Nc1ccc(OCc2cccc(F)c2)c(Cl)c1 | 0.43 | 0.176 | 1.03 | 0.878 | – | 0.133 | 86.5 | 0.288 | 0.272 |
| Cc1c(C(=O)/C=C/c2csc3ccccc23)[n+](=O)c2ccccc2n1[O-] | 3.88 | 8.18 | 4.81 | 3.26 | – | 1.61 | 2280 | 1.94 | 1.73 |
| CN(C)S(=O)(=O)c1ccc(NC(=O)COC(=O)c2ccc(S(=O)(=O)N3CCCCC3)cc2)cc1 | > 100 | > 100 | > 100 | > 100 | – | > 100 | > 100000 | > 100 | > 100 |
| O=C1c2ccccc2-c2c1c1ccccc1c(=O)n2CCCNCCCNCCCn1c2c(c3ccccc3c1=O)C(=O)c1ccccc1-2 | 2.08 | 0.18 | 0.112 | 2.26 | – | 0.665 | 38.2 | < 0.01 | 0.338 |
| CC1(C)SC2C(NC(=O)C(N)c3ccccc3)C(=O)N2C1C(=O)O (centres undefined) | > 100 | > 100 | > 100 | > 100 | – | – | – | – | – |
| ClCCn1c(CCl)nc2ccc(Cl)cc21 | 0.753 | 2.01 | 3.38 | 2.12 | – | 0.277 | 372 | 1.52 | 0.692 |
| C=C1C(=O)O[C@H]2[C@H]1CC/C(COC(=O)NCc1ccccc1OC)=C\CC[C@@]1(C)O[C@@H]21 | 2.55 | – | 3.49 | 4.86 | – | 1.25 | – | 1.47 | 1.7 |
| COc1cccc(/C=C/C(=O)c2cccc(Nc3nc(Nc4ccccc4)nc(Nc4ccccc4)n3)c2)c1 | > 72.1 | 6.91 | > 100 | > 59.7 | – | 21.7 | 1370 | 32.7 | 14.5 |
| CN1CCN(CCc2cccc(C(=O)c3cnn(-c4ccc(F)cc4)c3N)c2)CC1 | > 25 | > 25 | > 25 | > 25 | – | > 25 | > 25000 | > 25 | > 25 |
| CCN(CC)c1ccc(C(=C2C=CC(=[N+](CC)Cc3cccc(S(=O)(=O)O)c3)C=C2)c2ccc(N(CC)Cc3cccc(S(=O)(=O)O)c3)cc2)cc1 | > 91.7 | > 100 | > 92.6 | > 100 | – | 5.45 | 3660 | 9.61 | 4.07 |
| COC(=O)[C@@H](C)C[C@H](Cc1ccccc1)NC(=O)c1nc([C@@H](C[C@H](C(C)C)N(C)C(=O)[C@@H](NC(=O)[C@H]2CCCCN2C)C(C)C)OC(C)=O)sc1C | 0.0568 | > 16.7 | 0.441 | < 0.00167 | – | < 0.00167 | < 1.67 | < 0.00167 | < 0.00167 |
